The values below are quoted from earlier work in patent US20080166406A1, “Rapidly Disintegrating Dosage Form Comprising Magnesium Carbonate Heavy” (priority 2005, published 2008).

The conditions of this series: water, neutral pH, acidic pH; general statement.

With `Cc1cc2c(s1)Nc1ccccc1N=C2N1CCN(C)CC1` [Olanzapine], the Solubility entry is “insoluble in water and neutral pH but more soluble at acidic pH”.
